Results as given in patent publication US20210308089A1, “METHODS OF TREATING AND/OR PREVENTING VIRAL INFECTIONS AND/OR DISEASES CAUSED BY VIRUSES IN A SUBJECT IN NEED THEREOF” (priority 2020, published 2021).

Test system: patients of the REDUCE-IT and earlier EPA placebo-controlled trials
Assay: Example 3: adverse events by risk ratio, icosapent ethyl vs placebo (candidate categories; infectious disease terms of interest)
Settings: R-I
[1] = Cognitive Decline: Attention disorders and disturbances
[2] = Cognitive Decline: Cognitive and attention disorders and disturbances
[3] = Depression: Depressed mood disorders and disturbances
[4] = Depression: Depressive disorders
[5] = Depression: Depressive disorders - Depression
[6] = Depression: Depressive disorders - Major depression
[7] = Depression: Depressive disorders - Persistent depressive disorder
[8] = Depression: Depressive disorders- Agitated depression
[9] = Depression: Mood alterations - Depressed mood
[10] = Depression: Mood alterations - Depressive symptom
[11] = Depression: Mood alterations with depressive symptoms
[12] = Glomerulonephritis and Nephrotic Syndrome

Compound: CC/C=C\C/C=C\C/C=C\C/C=C\C/C=C\CCCC(=O)OCC [icosapent ethyl, eicosapentaenoic acid ethyl ester]
- ARR (Bipolar Disease): −0.0%
- NNT (Bipolar Disease): 2045
- Risk Ratio (95% CI) (Bipolar Disease): 0.333 (0.035 to 3.204) 4
- ARR (Blood CPK increased): −0.6%
- NNT (Blood CPK increased): 164
- Risk Ratio (95% CI) (Blood CPK increased): 0.684 (0.485 to 0.964) 2
- ARR (Bone Fractures): 0.0%
- NNT (Bone Fractures): −4088
- Risk Ratio (95% CI) (Bone Fractures): 2.000 (0.181 to 22.053) −3
- ARR (Breast Cancer): 0.0%
- NNT (Breast Cancer): −2389144
- Risk Ratio (95% CI) (Breast Cancer): 1.000 (0.351 to 2.849) −1
- ARR (CKD): 0.1%
- NNT (CKD): −680
- Risk Ratio (95% CI) (CKD): 1.123 (0.766 to 1.646) −1
- ARR (COPD): 0.2%
- NNT (COPD): −453
- Risk Ratio (95% CI) (COPD): 1.084 (0.837 to 1.405) −1
- ARR (Chrohn's Disease): −0.0%
- NNT (Chrohn's Disease): 2045
- Risk Ratio (95% CI) (Chrohn's Disease): 0.333 (0.035 to 3.204) 4
- ARR (Chronic Lymphycytic Leukaemia): 0.1%
- NNT (Chronic Lymphycytic Leukaemia): −1363
- Risk Ratio (95% CI) (Chronic Lymphycytic Leukaemia, case counts given): [3 drug vs 0 PBO]
- ARR [1]: 0.0%
- NNT [1]: −8362005
- Risk Ratio (95% CI) [1]: 1.000 (0.141 to 7.097) −1
- ARR [2]: 0.0%
- NNT [2]: −8362005
- Risk Ratio (95% CI) [2]: 1.000 (0.141 to 7.097) −1
- Risk Ratio (95% CI) (Cognitive Decline: Cognitive disturbances): [No cases in study]
- ARR (Colon Cancer): 0.1%
- NNT (Colon Cancer): −1022
- Risk Ratio (95% CI) (Colon Cancer): 2.000 (0.603 to 6.638) −3
- ARR (Cough): −0.2%
- NNT (Cough): 455
- Risk Ratio (95% CI) (Cough): 0.526 (0.245 to 1.131) 3
- Risk Ratio (95% CI) (Cystic Fibrosis): [No cases in study]
- ARR (Decreased Appetite): 0.5%
- NNT (Decreased Appetite): −215
- Risk Ratio (95% CI) (Decreased Appetite): 2.584 (1.329 to 5.024) −4
- ARR (Deep Venous Thromboembolism): −0.1%
- NNT (Deep Venous Thromboembolism): 1364
- Risk Ratio (95% CI) (Deep Venous Thromboembolism): 0.625 (0.205 to 1.909) 2
- ARR [3]: 0.3%
- NNT [3]: −340
- Risk Ratio (95% CI) [3]: 1.106 (0.861 to 1.422) −1
- ARR [4]: 0.3%
- NNT [4]: −314
- Risk Ratio (95% CI) [4]: 1.123 (0.867 to 1.454) −1
- ARR [5]: 0.2%
- NNT [5]: −408
- Risk Ratio (95% CI) [5]: 1.097 (0.843 to 1.428) −1
- ARR [6]: 0.0%
- NNT [6]: −2044
- Risk Ratio (95% CI) [6]: 3.001 (0.312 to 28.836) −4
- ARR [7]: 0.0%
- NNT [7]: −4088
- Risk Ratio (95% CI) [7]: 2.000 (0.181 to 22.053) −3
- ARR [8]: 0.0%
- NNT [8]: −2044
- Risk Ratio (95% CI) (Depression: Depressive disorders- Agitated depression, case counts given): [2 drug vs 0 PBO]
- ARR [9]: 0.0%
- NNT [9]: −3344802
- Risk Ratio (95% CI) [9]: 1.000 (0.290 to 3.452) −1
- ARR [10]: −0.0%
- NNT [10]: 4091
- Risk Ratio (95% CI) [10]: 0.500 (0.045 to 5.513) 3
- ARR [11]: −0.0%
- NNT [11]: 4096
- Risk Ratio (95% CI) [11]: 0.857 (0.288 to 2.549) 1
- ARR (Dermatitis psoriasiform): 0.0%
- NNT (Dermatitis psoriasiform): −4089
- Risk Ratio (95% CI) (Dermatitis psoriasiform, case counts given): [1 drug vs 0 PBO]
- ARR (Dermatitis, allergic): −0.2%
- NNT (Dermatitis, allergic): 454
- Risk Ratio (95% CI) (Dermatitis, allergic): 0.250 (0.071 to 0.885) 4
- ARR (Diabetic Nephropathy): −0.0%
- NNT (Diabetic Nephropathy): 4100
- Risk Ratio (95% CI) (Diabetic Nephropathy): 0.909 (0.387 to 2.139) 1
- ARR (Dry Eye): 0.1%
- NNT (Dry Eye): −1020
- Risk Ratio (95% CI) (Dry Eye): 1.129 (0.698 to 1.828) −1
- ARR (ESRD): −0.0%
- NNT (ESRD): 4092
- Risk Ratio (95% CI) (ESRD): 0.667 (0.111 to 3.989) 2
- ARR (Embolism and Thrombosis): 0.1%
- NNT (Embolism and Thrombosis): −1358
- Risk Ratio (95% CI) (Embolism and Thrombosis): 1.064 (0.716 to 1.581) −1
- ARR (Epilepsy): 0.0%
- NNT (Epilepsy): −1.67e+07
- Risk Ratio (95% CI) (Epilepsy): 1.000 (0.063 to 15.986)−1
- ARR (Erectile dysfunction): −0.4%
- NNT (Erectile dysfunction): 232
- Risk Ratio (95% CI) (Erectile dysfunction): 0.784 (0.535 to 1.151) 2
- ARR (Gastric Cancer): 0.0%
- NNT (Gastric Cancer): −4088
- Risk Ratio (95% CI) (Gastric Cancer): 2.000 (0.181 to 22.053) −3
- ARR (Gastroesophageal reflux): −0.1%
- NNT (Gastroesophageal reflux): 682
- Risk Ratio (95% CI) (Gastroesophageal reflux): 0.333 (0.090 to 1.231) 4
- ARR [12]: −0.1%
- NNT [12]: 1023
- Risk Ratio (95% CI) (Glomerulonephritis and Nephrotic Syndrome, case counts given): [0 drug vs 4 PBO]
- ARR (Guttate psoriasis): 0.0%
- NNT (Guttate psoriasis): −4089
